{"source": "patent US20240245677A1", "about": "“SELECTED COMPOUNDS FOR TARGETED DEGRADATION OF BRD9” (C4 THERAPEUTICS, INC., priority 2021, published 2024)", "key": {"[1]": {"tested_on": "SW982 cells", "assay": "SW982 in vitro viability assay (CellTiter-Glo, 144 hours)", "format": "cell-based, human", "protocol": "SW982 cells were obtained from ATCC (Catalog No. HTB-93, Manassas, VA, USA) and maintained in DMEM medium (Catalog No. 12430112, ThermoFisher Scientific, Waltham, MA, USA) supplemented with 10% fetal bovine serum (FBS) (Catalog No. 16000-044, Gibco, Grand Island, NY, USA) at 37° C. in an atmosphere of 5% CO2 in air. The cells were routinely sub-cultured to maintain cell density between 3×10^5-1.5×10^6 cells/mL, not to exceed 20 passages. The cells growing in an exponential growth phase were harvested by centrifugation at 1000 rpm and resuspended in fresh growth media. An aliquot was diluted 2× with Trypan Blue solution 0.4% (Catalog No. 15250061, ThermoFisher Scientific, Waltham, MA, USA) and cell count was determined. Cell concentration was adjusted with growth media to 1.0×10^4 cells/mL.\nCompound 1 was prepared by dissolving neat compound in DMSO (Catalog No. D8418, Sigma-Aldrich, Inc., St. Louis, MO, USA) to generate 10 mM stock solution and stored at −20° C. 10 mM DMSO stock solution was serially diluted (half log) in DMSO to generate 10-point dose series (10000, 3160, 1000, 316, 100, 31.6, 10, 3.16, 1, 0.32 μM) in acoustic ready 384-well low dead volume microplates (Catalog No. LP-0200, Beckman Coulter Life Sciences, Indianapolis, IN, USA). 50 nL of serially diluted compound solutions were dispensed using the Echo 550 Acoustic Liquid Handler Handler (Beckman Coulter Life Sciences, Indianapolis, IN, USA) in duplicate to each 384-well black TC-treated microplate (Catalog No. 3571, Corning, Glendale, CA, USA). 50 nL DMSO was transferred to all control wells.\n50 μL SW982 cells suspended in growth media at 1.0×10^4 cells/mL (500 cells/well) were dispensed using a Multidrop Combi Reagent Dispenser (Catalog No. 5840300, ThermoFisher Scientific, Waltham, MA, USA) to each well of 384-well black TC-treated microplates containing duplicate concentration range of test compounds and DMSO controls. Plates were spun briefly at 1000 rpm and cells were incubated at 37° C., 5% CO2 for 144 hours. Final concentration of DMSO was 0.1% for all samples.\nAdditional cell plates (TO plates) were prepared by dispensing cells into a blank 384-well black TC-treated microplate to represent cytostatic controls and processed for viability detection immediately after cell dispensing.\nSW982 cell viability was determined based on quantification of ATP using CellTiter-Glo® 2.0 luminescent assay kit (Catalog No. G9243, Promega, Madison, WI, USA), which signals the presence of metabolically active cells. On Day 0 (Time 0) and Day 6 (144 hours) 25 μL CellTiter-Glo® reagent was added to each well of cell plates except the wells in column 24 and the luminescence was measured after 4 hours incubation at room temperature using an EnVision® Multilabel Reader (Catalog No. 2104-0010, Perkin Elmer Inc., Dumfries, VA, USA). Column 24 (cells without CellTiter-Glo® addition) was used as plate background or positive control (P). Cytostatic control value (CT0) was computed from TO plate read using untreated cell signals (UT=0) and positive control signals (PT=0) as below.\nPercent response of compound-treated samples at a time point T were calculated by normalizing the signal with P and DMSO treated negative (N) controls on the same microtiter plate and the CT0 control:\nThe Response % is thus 100% if the CellTiter-Glo® signal equals that of the DMSO treated controls (i.e., normal cell growth), 0% if it equals that of untreated cell at TO (i.e., cytostasis), and −100% if it equals the no CellTiter-Glo® reagent controls (i.e., complete cytotoxicity).\nCurve fit and GI50 determination was performed by 4 parametric logistic fit analysis using software such as GraphPad Prism software (GraphPad Software, LLC, San Diego, CA, USA). The fit was performed through minimization of the root mean squared error between observed and calculated values of the four-parameter logistic equation using the simplex optimizer of the Apache Commons Math library. […]"}, "[2]": {"tested_on": "Yamato-SS synovial sarcoma cell line", "assay": "Global proteomics in Yamato-SS cells", "format": "cell-based, human", "conditions": "100 nM, 4 hours; for Emax at 0.1 µM: Homo sapiens", "protocol": "Global protein expression was performed in Yamato-SS and HSSYII synovial sarcoma cell lines after 4-hour treatment with Compound 1 (100 nM). The Yamato-SS cell line was provided by the RIKEN BRC through the National BioResource Project of the MEXT/AMED, Japan (cat #RCB3577), and the HS-SY-II cell line was provided by the RIKEN BRC through the National BioResource Project of the MEXT/AMED, Japan (cat #RCB2231).\nBoth Yamato-SS and HSSYII cell lines were treated with Compound 1 at 100 nM for 4 hours and analyzed by multiplexed quantitative proteomics. The x-axis illustrates the totality of the proteomics data and is labeled as fold change (FC) of Compound 1 vs vehicle in a Log 2 transformation scale. The statistical significance (T-test of treated vs. DMSO with Benjamini-Hochberg correction applied) of the observed changes is shown in the y-axis as negative Log 10 of the P-value. The horizontal dashed line marks the statistical significance (P-value ≤0.001) and the vertical line marks fold change ≥2."}}, "note": "Where two headings read alike, the source gives them in different places.", "data": [{"compound": "COc1cc(-c2cn(C)c(=O)c(C)c2C)cc(OC)c1CN1CC[C@H](N2CCN(c3ccc(N[C@H]4CCC(=O)NC4=O)cc3F)CC2)C(F)(F)C1", "note": "[Compound 1, (S)-3-((4-(4-((S)-1-(2,6-dimethoxy-4-(1,4,5-trimethyl-6-oxo-1,6-dihydropyridin-3-yl)benzyl)-3,3-difluoropiperidin-4-yl)piperazin-1-yl)-3-fluorophenyl)amino)-piperidine-2,6-dione]", "values": [{"measurement": "viability at 0.000318 µM", "setting": "[1]; Homo sapiens, SW982, 144 h, 0.318 nM, read-out: % SW982 Viability Relative to Vehicle Control at 144 hr, Mean", "value": 96.2, "unit": "%"}, {"measurement": "viability at 0.00101 µM", "setting": "[1]; Homo sapiens, SW982, 144 h, 1.01 nM, read-out: % SW982 Viability Relative to Vehicle Control at 144 hr, Mean", "value": 99.6, "unit": "%"}, {"measurement": "viability at 0.00317 µM", "setting": "[1]; Homo sapiens, SW982, 144 h, 3.17 nM, read-out: % SW982 Viability Relative to Vehicle Control at 144 hr, Mean", "value": 97.2, "unit": "%"}, {"measurement": "viability at 0.01 µM", "setting": "[1]; Homo sapiens, SW982, 144 h, 10.0 nM, read-out: % SW982 Viability Relative to Vehicle Control at 144 hr, Mean", "value": 101, "unit": "%"}, {"measurement": "viability at 0.0317 µM", "setting": "[1]; Homo sapiens, SW982, 144 h, 31.7 nM, read-out: % SW982 Viability Relative to Vehicle Control at 144 hr, Mean", "value": 95.7, "unit": "%"}, {"measurement": "viability at 0.1 µM", "setting": "[1]; Homo sapiens, SW982, 144 h, 100 nM, read-out: % SW982 Viability Relative to Vehicle Control at 144 hr, Mean", "value": 96.4, "unit": "%"}, {"measurement": "viability at 0.317 µM", "setting": "[1]; Homo sapiens, SW982, 144 h, 317 nM, read-out: % SW982 Viability Relative to Vehicle Control at 144 hr, Mean", "value": 91.9, "unit": "%"}, {"measurement": "viability at 1 µM", "setting": "[1]; Homo sapiens, SW982, 144 h, 1000 nM, read-out: % SW982 Viability Relative to Vehicle Control at 144 hr, Mean", "value": 88.6, "unit": "%"}, {"measurement": "viability at 3.161 µM", "setting": "[1]; Homo sapiens, SW982, 144 h, 3161 nM, read-out: % SW982 Viability Relative to Vehicle Control at 144 hr, Mean", "value": 85.7, "unit": "%"}, {"measurement": "viability at 9.99 µM", "setting": "[1]; Homo sapiens, SW982, 144 h, 9990 nM, read-out: % SW982 Viability Relative to Vehicle Control at 144 hr, Mean", "value": 84.2, "unit": "%"}, {"measurement": "GI50", "setting": "[1]; Homo sapiens, SW982 cells, 144-hour treatment, read-out: Geometric Mean GI50", "value": "> 10", "unit": "µM"}, {"measurement": "Emax", "setting": "[1]; Homo sapiens, SW982 cells, 144-hour treatment, read-out: Mean Emax (%) ± SD", "value": "84.2 ± 4.6", "unit": "%"}, {"measurement": "growth inhibition at the highest concentration tested", "setting": "[1]; SW982 cells, 144-hour treatment", "value": "< 20", "unit": "%"}, {"measurement": "ADAMST1 protein level decrease vs DMSO control", "setting": "[2]", "value": 66.3, "unit": "%"}, {"measurement": "BRD9 protein level decrease vs DMSO control", "setting": "[2]", "value": 66.5, "unit": "%"}, {"measurement": "Emax at 0.1 µM", "setting": "[2]; read-out: ADAMST1 Emax", "value": 33.7, "unit": "%"}, {"measurement": "Emax at 0.1 µM", "setting": "[2]; read-out: BRD9 Emax", "value": 33.5, "unit": "%"}]}]}
